Data: US8133910B2, “Thiophene derivatives as S1P1/EDGE1 receptor agonists” (Actelion Pharmaceuticals Ltd., priority 2006, dated 2012)

target: recombinant human S1P1 receptor (Homo sapiens, UniProt P21453); test: GTPγS assay to determine EC50 values; format: biochemical; settings: 35S-GTPγS binding, membrane preparations of CHO cells expressing recombinant human S1P1 receptor, pH 7.4
Protocol: GTPγS binding assays are performed in 96 well microtiter plates (Nunc, 442587) in a final volume of 200 μl, using membrane preparations of CHO cells expressing recombinant human S1P1 receptor. Assay conditions are 20 mM Hepes (Fluka, 54461), 100 mM NaCl (Fluka, 71378), 5 mM MgCl2 (Fluka, 63064), 0.1% BSA (Calbiochem, 126609), 1 μM GDP (Sigma, G-7127), 2.5% DMSO (Fluka, 41644), 50 pM ^35S-GTPγS (Amersham Biosciences, SJ1320). The pH is 7.4. Test compounds are dissolved and diluted in 100% DMSO and pre-incubated at room temperature for 30 min in 150 μl of the above assay buffer, in the absence of ^35S-GTPγS. After addition of 50 μl of ^35S-GTPγS, the assay is incubated for 1 h at rt. The assay is terminated by transfer of the reaction mixture to a Multiscreen plate (Millipore, MAHFC1H60) using a cell harvester from Packard Biosciences, and the plates are washed with ice-cold 10 mM Na2HPO4/NaH2PO4 (70%/30%), dried, sealed at the bottom and, after addition of 25 μl MicroScint20 (Packard Biosciences, order #6013621), sealed on the top. Membrane-bound ^35S-GTPγS is measured with a TopCount from Packard Biosciences.
EC50 is the concentration of agonist inducing 50% of the maximal specific ^35S-GTPγS binding. Specific binding is determined by subtracting non-specific binding from maximal binding. Maximal binding is the amount of cpm bound to the
Multiscreen plate in the presence of 10 μM of S1P. Non-specific binding is the amount of binding in the absence of an agonist in the assay.

Chain of recombinant human S1P1 receptor (P21453 whole entry): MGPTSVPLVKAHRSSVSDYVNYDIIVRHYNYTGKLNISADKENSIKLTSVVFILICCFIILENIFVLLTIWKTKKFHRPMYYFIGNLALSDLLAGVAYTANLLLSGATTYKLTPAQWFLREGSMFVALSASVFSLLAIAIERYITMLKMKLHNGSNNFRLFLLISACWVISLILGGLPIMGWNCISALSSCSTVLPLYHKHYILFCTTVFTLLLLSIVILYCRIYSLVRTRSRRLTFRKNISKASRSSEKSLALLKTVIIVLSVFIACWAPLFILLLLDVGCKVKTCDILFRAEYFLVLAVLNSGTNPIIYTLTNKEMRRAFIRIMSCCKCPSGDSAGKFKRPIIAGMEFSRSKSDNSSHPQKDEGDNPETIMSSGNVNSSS

EC50 | Compound
0.6 nM | CCc1cc(-c2nnc(-c3cc(C)c(CC(C)C)s3)o2)cc(C)c1OC[C@@H](O)CNC(=O)CO [Example 42, N-((2S)-3-{2-Ethyl-4-[5-(5-isobutyl-4-methyl-thiophen-2-yl)-[1,3,4]oxadiazol-2-yl]-6-methyl-phenoxy}-2-hydroxy-propyl)-2-hydroxy-acetamide]
2.4 nM | CCCc1ccc(-c2nc(-c3cc(C)c(OC[C@@H](O)CNC(=O)CO)c(CC)c3)no2)s1 [Example 28, (2S)—N-(3-{2-Ethyl-6-methyl-4-[5-(5-propyl-thiophen-2-yl)-[1,2,4]oxadiazol-3-yl]-phenoxy}-2-hydroxy-propyl)-2-hydroxy-acetamide]
2.6 nM | Cc1cc(-c2noc(-c3ccc(CC(C)C)s3)n2)cc(C)c1OCC(O)CNC(=O)CO (stereo not drawn) [Example 16]
2.8 nM | Cc1cc(-c2nnc(-c3ccc(CC(C)C)s3)o2)cc(C)c1OCC(O)CNC(=O)CO (stereo not drawn) [Example 22, 2-hydroxy-N-(2-hydroxy-3-{4-[5-(5-isobutyl-thiophen-2-yl)-[1,3,4]oxadiazol-2-yl]-2,6-dimethyl-phenoxy}-propyl)-acetamide]
0.6 nM | CCCc1ccc(-c2nc(-c3cc(C)c(OC[C@H](O)CNC(=O)CO)c(C)c3)no2)s1 [Example 17, (2R)—N-(3-{2,6-Dimethyl-4-[5-(5-propyl-thiophen-2-yl)-[1,2,4]oxadiazol-3-yl]-phenoxy}-2-hydroxy-propyl)-2-hydroxy-acetamide]
3.3 nM | Cc1cc(-c2nnc(-c3ccc(CC(C)C)s3)o2)cc(C)c1OC[C@@H](O)CNC(=O)CO [Example 31, 2-hydroxy-N-((2S)-2-hydroxy-3-{4-[5-(5-isobutyl-thiophen-2-yl)-[1,3,4]oxadiazol-2-yl]-2,6-dimethyl-phenoxy}-propyl)-acetamide]

system: circulating lymphocytes; test: Assessment of in vivo efficacy: circulating lymphocytes after oral administration; settings: 6 h after oral administration of 10 mg/kg to normotensive male Wistar rats, as compared to vehicle group; mean±SEM
Protocol: The efficacy of the compounds of Formula (I) is assessed by measuring the circulating lymphocytes after oral administration of 3 to 30 mg/kg of a compound of Formula (I) to normotensive male Wistar rats. The animals are housed in climate-controlled conditions with a 12 h-light/dark cycle, and have free access to normal rat chow and drinking water. Blood is collected before and 3, 6 and 24 h after drug administration. Full blood is subjected to hematology using Advia Hematology system (Bayer Diagnostics, Zürich, Switzerland).
All data are presented as mean±SEM. Statistical analyses are performed by analysis of variance (ANOVA) using Statistica (StatSoft) and the Student-Newman-Keuls procedure for multiple comparisons. The null hypothesis is rejected when p<0.05.

Compound | Lymphocyte counts
CCc1cc(-c2nnc(-c3cc(C)c(CC(C)C)s3)o2)cc(C)c1OC[C@@H](O)CO [Example 40, (2S)-3-{2-Ethyl-4-[5-(5-isobutyl-4-methyl-thiophen-2-yl)-[1,3,4]oxadiazol-2-yl]-6-methyl-phenoxy}-propane-1,2-diol] | −58 ± 3%
CCCc1ccc(-c2nc(-c3cc(C)c(OC[C@H](O)CNC(=O)CO)c(C)c3)no2)s1 [Example 17, (2R)—N-(3-{2,6-Dimethyl-4-[5-(5-propyl-thiophen-2-yl)-[1,2,4]oxadiazol-3-yl]-phenoxy}-2-hydroxy-propyl)-2-hydroxy-acetamide] | −59. ± 4%
CCc1cc(-c2nnc(-c3ccc(CC(C)C)s3)o2)cc(C)c1OC[C@@H](O)CNC(=O)CO [Example 37, N-((2S)-3-{2-Ethyl-6-methyl-4-[5-(5-isobutyl-thiophen-2-yl)-[1,3,4]oxadiazol-2-yl]-phenoxy}-2-hydroxy-propyl)-2-hydroxy-acetamide] | −67 ± 3%
